Values of other authors in patent US7553863B2, “Ultrapure 4-methylpyrazole” (Paladin Labs (Barbados) Inc., priority 2005, dated 2009).

Assays:
[1] = H. Kohno et al., Cancer Sci. 2005
[2] = system: alcohol dehydrogenase; details: relative to 4-methylpyrazole; T. Li et al., Acta Chem. Scan. 1969
[3] = Eisses, 1995
[4] = system: brain levels of noradrenaline; details: in contrast to 4-methylpyrazole; E. MacDonald, Acta Pharmacol. et Toxicol. 1976

SMILES | mutagenicity and carcinogenicity [1] | fold less potency against alcohol dehydrogenase [2] [fold] | teratogenicity [3] | effect on brain levels of noradrenaline [4]
NN [Hydrazine] | known mutagens and carcinogens | – | – | –
c1cn[nH]c1 [Pyrazole] | – | 10 | known teratogen | detrimental effect
